Reference: patent publication US11498899B2, “Nitrone herbicides” (FMC Corporation, priority 2016, dated 2022)

How the values were obtained:
[1] = tested on: barnyardgrass (Echinochloa crus-galli); assay: Test A preemergence, visual injury rating 0-100 (0 no effect, 100 complete control); format: in vivo
[2] = tested on: barnyardgrass (Echinochloa crus-galli); assay: Test B flooded paddy test, visual rating 0-100; conditions: Flood, 250 g ai/ha, applied to paddy water, rated after 13 to 15 days
[3] = tested on: blackgrass (Alopecurus myosuroides); assay: Test A postemergence, visual injury rating 0-100; format: in vivo; conditions: 0 to 100 scale
[4] = tested on: barnyardgrass (Echinochloa crus-galli); assay: Test A postemergence, visual injury rating 0-100; format: in vivo; conditions: 0 to 100 scale
corn (Zea mays) = assay: Test A postemergence, visual injury rating 0-100; format: in vivo; conditions: 0 to 100 scale
[5] = tested on: ryegrass, Italian (Italian ryegrass, Lolium multiflorum); assay: Test A postemergence, visual injury rating 0-100; format: in vivo; conditions: 0 to 100 scale
[6] = tested on: ragweed (common ragweed, Ambrosia elatior); assay: Test A postemergence, visual injury rating 0-100; format: in vivo; conditions: 0 to 100 scale
kochia (Kochia scoparia) [7] = assay: Test A postemergence, visual injury rating 0-100; format: in vivo; conditions: 0 to 100 scale
[8] = tested on: wheat (Triticum aestivum); assay: Test A postemergence, visual injury rating 0-100; format: in vivo; conditions: 0 to 100 scale
[9] = tested on: pigweed (Amaranthus retroflexus); assay: Test A postemergence, visual injury rating 0-100; format: in vivo; conditions: 0 to 100 scale
[10] = tested on: foxtail, green (green foxtail, Setaria viridis); assay: Test A postemergence, visual injury rating 0-100; format: in vivo; conditions: 0 to 100 scale
rice (Oryza sativa) = assay: Test B flooded paddy test, visual rating 0-100 (0 no effect, 100 complete control); conditions: Flood, 250 g ai/ha, applied to paddy water, rated after 13 to 15 days
[11] = tested on: ryegrass, Italian (Italian ryegrass, Lolium multiflorum); assay: Test A preemergence, visual injury rating 0-100; format: in vivo
[12] = tested on: ragweed (common ragweed, Ambrosia elatior); assay: Test A preemergence, visual injury rating 0-100; format: in vivo
kochia (Kochia scoparia) [13] = assay: Test A preemergence, visual injury rating 0-100; format: in vivo
[14] = tested on: pigweed (Amaranthus retroflexus); assay: Test A preemergence, visual injury rating 0-100; format: in vivo
[15] = tested on: foxtail, green (green foxtail, Setaria viridis); assay: Test A preemergence, visual injury rating 0-100; format: in vivo
[16] = tested on: ducksalad (Heteranthera limosa); assay: Test B flooded paddy test, visual rating 0-100; conditions: Flood, 250 g ai/ha, applied to paddy water, rated after 13 to 15 days
[17] = tested on: foxtail, giant (giant foxtail, Setaria faberii); assay: Test A postemergence, visual injury rating 0-100; format: in vivo; conditions: 0 to 100 scale
[18] = tested on: galium (catchweed bedstraw, Galium aparine); assay: Test A postemergence, visual injury rating 0-100; format: in vivo; conditions: 0 to 100 scale
[19] = tested on: foxtail, giant (giant foxtail, Setaria faberii); assay: Test A preemergence, visual injury rating 0-100; format: in vivo

SMILES | Barnyardgrass plant response rating (0 to 100 scale) ([1]; 125 g ai/ha) | Barnyardgrass plant response rating (0 to 100 scale) [2] | Blackgrass plant response rating ([3]; 125 g ai/ha) | Blackgrass plant response rating ([3]; 500 g ai/ha) | Barnyardgrass plant response rating ([4]; 125 g ai/ha) | Barnyardgrass plant response rating ([4]; 500 g ai/ha) | Corn plant response rating (corn (Zea mays); 125 g ai/ha) | Corn plant response rating (corn (Zea mays); 500 g ai/ha) | Ryegrass, Italian plant response rating ([5]; 125 g ai/ha) | Ryegrass, Italian plant response rating ([5]; 500 g ai/ha) | Ragweed plant response rating ([6]; 125 g ai/ha) | Ragweed plant response rating ([6]; 500 g ai/ha) | Kochia plant response rating (kochia (Kochia scoparia) [7]; 125 g ai/ha) | Kochia plant response rating (kochia (Kochia scoparia) [7]; 500 g ai/ha) | Wheat plant response rating ([8]; 125 g ai/ha) | Wheat plant response rating ([8]; 500 g ai/ha) | Pigweed plant response rating ([9]; 125 g ai/ha) | Pigweed plant response rating ([9]; 500 g ai/ha) | Rice plant response rating (0 to 100 scale) (rice (Oryza sativa)) | Ryegrass, Italian plant response rating (0 to 100 scale) ([11]; 125 g ai/ha) | also measured
CC1=[N+]([O-])C(C(=O)Nc2cccc(F)c2F)C(c2ccc(C#N)cc2)C1 (racemic) [Compound 22] | 20 | 0 | 0 | 30 | 0 | 60 | 0 | 0 | 0 | 0 | 0 | 0 | 0 | 30 | 0 | 0 | 0 | 20 | 30 | 0 | Barnyardgrass plant response rating ([1]; 500 g ai/ha, 0 to 100 scale): 80; Foxtail, Green plant response rating ([10]; 125 g ai/ha): 0; Foxtail, Green plant response rating ([10]; 500 g ai/ha): 50; Ryegrass, Italian plant response rating ([11]; 500 g ai/ha, 0 to 100 scale): 0; Ragweed plant response rating (0 to 100 scale) ([12]; 125 g ai/ha): 70; Ragweed plant response rating ([12]; 500 g ai/ha, 0 to 100 scale): 30; Kochia plant response rating (0 to 100 scale) (kochia (Kochia scoparia) [13]; 125 g ai/ha): 0; Kochia plant response rating (kochia (Kochia scoparia) [13]; 500 g ai/ha, 0 to 100 scale): 20; Pigweed plant response rating (0 to 100 scale) ([14]; 125 g ai/ha): 0; Pigweed plant response rating ([14]; 500 g ai/ha, 0 to 100 scale): 20; Foxtail, Green plant response rating (0 to 100 scale) ([15]; 125 g ai/ha): 40; Foxtail, Green plant response rating ([15]; 500 g ai/ha, 0 to 100 scale): 70; Ducksalad plant response rating (0 to 100 scale) [16]: 40
CC1=[N+]([O-])C(C(=O)Nc2cccc(F)c2F)C(c2cccc(Cl)c2F)C1 (stereo not drawn) [Compound 99] | 90 | 60 | 50 | 70 | 90 | 90 | 0 | 40 | 30 | 70 | 0 | 30 | 0 | 50 | 0 | 50 | 0 | 40 | 0 | 50 | Barnyardgrass plant response rating (0 to 100 scale) ([1]; 500 g ai/ha): 90; Foxtail, Giant plant response rating ([17]; 125 g ai/ha): 60; Foxtail, Giant plant response rating ([17]; 500 g ai/ha): 90; Galium plant response rating ([18]; 125 g ai/ha): 30; Galium plant response rating ([18]; 500 g ai/ha): 50; Foxtail, Giant plant response rating (0 to 100 scale) ([19]; 125 g ai/ha): 90; Foxtail, Giant plant response rating (0 to 100 scale) ([19]; 500 g ai/ha): 90; Ryegrass, Italian plant response rating (0 to 100 scale) ([11]; 500 g ai/ha): 70; Ragweed plant response rating (0 to 100 scale) ([12]; 125 g ai/ha): 10; Ragweed plant response rating (0 to 100 scale) ([12]; 500 g ai/ha): 80; Kochia plant response rating (0 to 100 scale) (kochia (Kochia scoparia) [13]; 125 g ai/ha): 10; Kochia plant response rating (0 to 100 scale) (kochia (Kochia scoparia) [13]; 500 g ai/ha): 70; Pigweed plant response rating (0 to 100 scale) ([14]; 125 g ai/ha): 0; Pigweed plant response rating (0 to 100 scale) ([14]; 500 g ai/ha): 60; Ducksalad plant response rating (0 to 100 scale) [16]: 85
COc1cc(C2CC(C)=[N+]([O-])C2C(=O)Nc2cccc(F)c2F)ccc1C(F)(F)F (stereo not drawn) [Compound 100] | 90 | 0 | 30 | 70 | 70 | 90 | 30 | 70 | 0 | 70 | 20 | 70 | 20 | 70 | 20 | 50 | 0 | 40 | 0 | 0 | Barnyardgrass plant response rating (0 to 100 scale) ([1]; 500 g ai/ha): 90; Foxtail, Giant plant response rating ([17]; 125 g ai/ha): 60; Foxtail, Giant plant response rating ([17]; 500 g ai/ha): 90; Galium plant response rating ([18]; 125 g ai/ha): 70; Galium plant response rating ([18]; 500 g ai/ha): 80; Foxtail, Giant plant response rating (0 to 100 scale) ([19]; 125 g ai/ha): 90; Foxtail, Giant plant response rating (0 to 100 scale) ([19]; 500 g ai/ha): 90; Ryegrass, Italian plant response rating (0 to 100 scale) ([11]; 500 g ai/ha): 90; Ragweed plant response rating (0 to 100 scale) ([12]; 125 g ai/ha): 0; Ragweed plant response rating (0 to 100 scale) ([12]; 500 g ai/ha): 80; Kochia plant response rating (0 to 100 scale) (kochia (Kochia scoparia) [13]; 125 g ai/ha): 40; Kochia plant response rating (0 to 100 scale) (kochia (Kochia scoparia) [13]; 500 g ai/ha): 80; Pigweed plant response rating (0 to 100 scale) ([14]; 125 g ai/ha): 0; Pigweed plant response rating (0 to 100 scale) ([14]; 500 g ai/ha): 60; Ducksalad plant response rating (0 to 100 scale) [16]: 0
CC1=[N+]([O-])C(C(=O)Nc2cccc(F)c2F)C(c2ccc(C(F)(F)F)cc2F)C1 (stereo not drawn) [Compound 101] | 90 | 50 | 70 | 80 | 50 | 90 | 20 | 70 | 50 | 50 | 30 | 60 | 30 | 60 | 10 | 60 | 0 | 60 | 0 | 40 | Barnyardgrass plant response rating (0 to 100 scale) ([1]; 500 g ai/ha): 90; Foxtail, Giant plant response rating ([17]; 125 g ai/ha): 80; Foxtail, Giant plant response rating ([17]; 500 g ai/ha): 90; Galium plant response rating ([18]; 125 g ai/ha): 70; Galium plant response rating ([18]; 500 g ai/ha): 80; Foxtail, Giant plant response rating (0 to 100 scale) ([19]; 125 g ai/ha): 90; Foxtail, Giant plant response rating (0 to 100 scale) ([19]; 500 g ai/ha): 90; Ryegrass, Italian plant response rating (0 to 100 scale) ([11]; 500 g ai/ha): 90; Ragweed plant response rating (0 to 100 scale) ([12]; 125 g ai/ha): 10; Ragweed plant response rating (0 to 100 scale) ([12]; 500 g ai/ha): 90; Kochia plant response rating (0 to 100 scale) (kochia (Kochia scoparia) [13]; 125 g ai/ha): 30; Kochia plant response rating (0 to 100 scale) (kochia (Kochia scoparia) [13]; 500 g ai/ha): 90; Pigweed plant response rating (0 to 100 scale) ([14]; 125 g ai/ha): 70; Pigweed plant response rating (0 to 100 scale) ([14]; 500 g ai/ha): 90; Ducksalad plant response rating (0 to 100 scale) [16]: 90
